The record followed here is US20070014757A1, “Compositions and complexes containing a macromolecular compound as potential anti-inflammatory agents” (COUNCIL OF SCIENTIFIC AND INDUSTRIAL RESEARCH, priority 2002, published 2007).

Series [1] has as its system cotton pellet granuloma in rats. Put plainly: Cotton pellet test in rats (sub-acute model). In kind it is in vivo. To be noted: granuloma dry weight vs control, dosed once a day, day 1 to 7; I 1.4 mg/kg, D 12 mg/kg, DI 1.4 mg/kg I + 12 mg/kg D. The procedure:
Cotton pellet test in rats: Four autoclaved pellets of cotton weighing 10 mg±0.5 mg were implanted on the previously shaved groin and axilla (two cotton pellet in each) region of rats aseptically. The test formulations (D,I and DI) were fed once a day from 1 to 7 of the experiment. On the day 8 th, the rats were etherized by an overdose of ether and the pellets surrounded by granuloma tissue wre dissected out carefully and dried in a hot oven at 60° C. till a constant weight was obtained. Ulcers were not found in any of the case. After dissection various organs were removed, washed, dried and weighed and histopathology was carried out. No abnormalities were found after conducting the histopathology of liver, lung, kidney and spleen.
The subcutaneous implantation of cotton pellets provides inflammatory exudates that are easily processed. Implantation of cotton pellet triggers the series of cascade inflammatory reaction, leads to the migration of mediators of the inflammation in the zone of implantation.

Series [2] concerns Adjuvant-induced arthritis in rats. Put plainly: Adjuvant-induced arthritis in rats (chronic model). In kind it is in vivo. To be noted: foot swelling, daily dosing I 1 mg/kg, D 9 mg/kg, DI 1 mg/kg I + 9 mg/kg D. From the text:
Rats were sacrificed. After dissection various organs were removed, washed, dried and weighed. Ulcers were not observed in any of the cases.
The body weight and feed intake of rats were monitored regularly. Weight gain has also been used as a parameter for assessing drug effectiveness.

Series [3] can be described thus: Phase solubility study of indomethacin in aqueous dendrimer solutions. It counts as physicochemical. To be noted: indomethacin with PAMAM (fourth generation), 25° C. The procedure: Solubility studies were carried out as described by Higuchi and Connors with minor modifications.
Solubility phase diagram depicts the AN type of curve (FIG. 2), which represent a decreasing dependence on the ligand added at higher concentration. This type is comparatively least frequently encountered system, and its occurrence may be explained on the basis of self-association of the ligand at high concentration, which is in contrast to the curve reported by Emanuele et al, for dendrimer using ibuprofen. The negative slope in the curve may be due to the aggregation of dendrimer with the increasing concentration.

A short description of series [4]: Comparative behavior of dendrimer and indomethacin at different pH (solubility). It counts as physicochemical. How it is done:
To study the comparative behavior of dendrimer and indometacin at different pH two possibilities were tried. […] The pH of the aqueous solutions of dendrimer was adjusted using 0.1 N HCl and 1M NaOH. […] To the aqueous solutions of various pH (pH-2, 4 7, 8 and 10), dendrimer was added at different percentage. (0.075, 0.15, 0.2). pH was measured in each case. […] The amines of dendrimer will show maximum ionization at acidic pH and minimum ionization at basic pH. […] (initial pH).

A short description of series [5]: Hematological parameters in arthritic rats (blood cell counter).
Method: (§1) Hematological parameters were determined by blood cell counter (Medonic CA 620).
The conditions of series [6]: rat, in vivo.
Method: as §1

Where two headings read alike, the source gives them in different places.

Consider `COc1ccc2c(c1)c(CC(=O)O)c(C)n2C(=O)c1ccc(Cl)cc1` [I, Indomethacin], for which the “Mean Percentage Inhibition ± SE” value in series [1] came to 22 ± 1.2%. In series [2] (+1 day), the “Mean Percentage Inhibition ± SE” value amounted to 17 ± 0.9%. Further, in series [2] (+3 day), the “Mean Percentage Inhibition ± SE” value is 18 ± 0.7%. In addition, the “Mean Percentage Inhibition ± SE” value in series [2] (+5 day) was 9 ± 0.6%. For the same compound, the “Mean Percentage Inhibition ± SE” value in series [2] (+7 day) is 9 ± 0.8%. Further, the “Mean Percentage Inhibition ± SE” value in series [2] (+10 day) is reported as 8 ± 0.6%. The “Mean Percentage Inhibition ± SE” value in series [2] (+12 day) is given as 10 ± 0.9%. Further, the “Mean Percentage Inhibition ± SE” value in series [2] (+14 day) is given as 11 ± 0.9%. Moreover, the “type of phase solubility profile” value in series [3] is given as “AN type of solubility profile”. The “solubility of indomethacin on addition of dendrimer (in words)” value in series [4] (case-A: filtered saturated solution of indomethacin) was “found to be decrease”. The “solubility of indomethacin on addition of dendrimer (in words)” value in series [4] (case-B: suspension with un-dissolved drug, dendrimer 0.075%, 0.15%, 0.2%) was “further increased”. In series [5], the Haematocrit turned out to be 30.3%, the Hemoglobin concentration came out at 11.6 gm/dl, the Large platelets is reported as 8.05% and the “Mean Platelet Cell Volume” value stood at 6.55 um^3. In series [5], the Mean cell hemoglobin was determined as 19.9 pg, the “Mean cell hemoglobin concentration” value came out at 38.2 g/dL, the “Mean cell volume for red blood cell” value was determined as 52 um^3 and the Packed platelet volume is 0.51%. Besides, in series [5], the Platelet distribution width stood at 8.63 um^3, the Platelets is listed as 778 10^3\mm^3, the Red blood cell is on record as 5.87 10^6/mm^3 and the “Red cell distribution width” value turned out to be 18.9%. For the same compound, in series [5], the “Red cell distribution width absolute” value turned out to be 44.1 um^3 and the White blood cells is listed as 8.85 10^3/mm^3.

Consider “NH2 terminated PAMAM dendrimer (EDA core) generation 4”, for which, in series [6], the Haematocrit came to 37.3%, the Hemoglobin concentration amounted to 11.3 gm/dl, the Large platelets is listed as 7.75% and the “Mean Platelet Cell Volume” value came to 6.5 um^3. In addition, in series [6], the Mean cell hemoglobin is 18.9 pg, the “Mean cell hemoglobin concentration” value was found to be 38 g/dL, the “Mean cell volume for red blood cell” value turned out to be 49.7 um^3 and the Packed platelet volume is on record as 0.45%. In addition, in series [6], the Platelet distribution width came out at 8.6 um^3, the Platelets is 700 10^3\mm^3, the Red blood cell was 6 10^6/mm^3 and the “Red cell distribution width” value was 14.9%. Moreover, in series [6], the “Red cell distribution width absolute” value worked out at 36.3 um^3 and the White blood cells was 8.78 10^3/mm^3.
